The source of these data is ChEMBL document CHEMBL2406941, “Discovery of 'molecular switches' within a GIRK activator scaffold that afford selective GIRK inhibitors” (Bioorg Med Chem Lett, 2013).

The source made the active and inactive calls. The rule behind the calls is not given here. A value given as a limit tells only on which side of the number the result lay.

Test [1] addresses T1, G protein-activated inward rectifier potassium channel 2 (Homo sapiens) (UniProt P48051).
T1 sequence (whole entry): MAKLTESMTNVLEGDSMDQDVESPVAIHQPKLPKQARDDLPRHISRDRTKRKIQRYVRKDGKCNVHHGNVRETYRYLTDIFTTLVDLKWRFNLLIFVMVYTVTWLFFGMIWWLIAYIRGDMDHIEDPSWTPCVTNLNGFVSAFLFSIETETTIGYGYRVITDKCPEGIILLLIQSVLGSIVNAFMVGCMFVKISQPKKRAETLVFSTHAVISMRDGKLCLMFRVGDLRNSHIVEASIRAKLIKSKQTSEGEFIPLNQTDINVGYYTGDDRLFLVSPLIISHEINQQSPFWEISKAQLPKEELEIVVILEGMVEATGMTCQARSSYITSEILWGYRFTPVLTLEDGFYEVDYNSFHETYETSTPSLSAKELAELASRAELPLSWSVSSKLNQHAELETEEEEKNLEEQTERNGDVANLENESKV
Put plainly: Activation of GIRK2 (unknown origin).

In test [2] the target is Kir3.2/Kir3.3 (Homo sapiens) (UniProt P48051+Q92806). Description: Activation of GIRK2/3 (unknown origin). In kind it is protein-complex assay.
Test [3] deals with T2, Kir3.1/Kir3.2 (Homo sapiens, UniProt P48051+P48549).
T2 sequence (P48549 whole entry): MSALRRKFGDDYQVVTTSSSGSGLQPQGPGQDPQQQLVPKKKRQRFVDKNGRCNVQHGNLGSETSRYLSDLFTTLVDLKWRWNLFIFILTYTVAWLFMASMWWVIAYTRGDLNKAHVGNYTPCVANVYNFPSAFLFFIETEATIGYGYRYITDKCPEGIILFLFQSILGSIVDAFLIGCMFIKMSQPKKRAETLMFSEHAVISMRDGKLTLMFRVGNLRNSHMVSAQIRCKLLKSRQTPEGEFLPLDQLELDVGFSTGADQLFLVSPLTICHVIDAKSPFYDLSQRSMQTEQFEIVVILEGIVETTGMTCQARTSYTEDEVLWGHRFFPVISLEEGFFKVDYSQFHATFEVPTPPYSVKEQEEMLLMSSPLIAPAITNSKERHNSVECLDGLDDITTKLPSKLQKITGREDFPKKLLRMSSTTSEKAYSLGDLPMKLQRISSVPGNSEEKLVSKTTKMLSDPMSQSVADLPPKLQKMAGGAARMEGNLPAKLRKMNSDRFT
T2 sequence (P48051 whole entry): T1 sequence (whole entry)
Description: Activation of GIRK1/2 (unknown origin). In kind it is protein-complex assay.

Test [4] deals with T3, Kir3.1/Kir3.4 (Homo sapiens) (UniProt P48549+P48544). Put plainly: Activation of GIRK1/4 (unknown origin) relative to ML297. In kind it is protein-complex assay.
The target of test [5] is T4, Kir3.1/Kir3.2 (Homo sapiens) (UniProt P48549+P48051). Put plainly: Activation of GIRK1/2 (unknown origin) relative to ML297. In kind it is protein-complex assay.
A further test addresses T5, Kir3.1/Kir3.4 (Homo sapiens, UniProt P48544+P48549).
T5 sequence (P48549 whole entry): T2 sequence (P48549 whole entry)
T5 sequence (P48544 whole entry): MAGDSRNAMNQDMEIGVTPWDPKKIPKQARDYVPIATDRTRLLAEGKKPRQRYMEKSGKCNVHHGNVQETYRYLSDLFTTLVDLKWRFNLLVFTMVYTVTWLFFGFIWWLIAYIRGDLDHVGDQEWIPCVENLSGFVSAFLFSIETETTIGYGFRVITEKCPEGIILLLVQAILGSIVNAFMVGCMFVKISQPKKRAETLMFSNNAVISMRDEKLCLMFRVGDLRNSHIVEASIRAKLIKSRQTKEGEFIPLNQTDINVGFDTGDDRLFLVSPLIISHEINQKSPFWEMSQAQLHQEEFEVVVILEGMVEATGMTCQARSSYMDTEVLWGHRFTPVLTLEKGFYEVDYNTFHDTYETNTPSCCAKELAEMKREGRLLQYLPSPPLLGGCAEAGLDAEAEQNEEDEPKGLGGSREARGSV
Put plainly: Activation of GIRK1/4 (unknown origin). In kind it is protein-complex assay.

Test [6] deals with T3, Kir3.1/Kir3.4 (Homo sapiens). Description: Activation of GIRK1/4 (unknown origin) relative to control. In kind it is protein-complex assay.
Test [7] has as its target T4, Kir3.1/Kir3.2 (Homo sapiens). Description: Activation of GIRK1/2 (unknown origin) by thallium flux assay relative to control. In kind it is protein-complex assay.
In test [8] the target is T2, Kir3.1/Kir3.2. Description: Activation of GIRK1/2 (unknown origin) by thallium flux assay. In kind it is protein-complex assay.
Test [9] can be described thus: Inhibition of GIRK (unknown origin). More on the design: species or system Homo sapiens.
A short description of test [10]: Activation of GIRK (unknown origin). On the set-up: species or system Homo sapiens.

As for `Cc1cc(NC(=O)Nc2ccc(F)c(F)c2)n(CC(F)(F)F)n1`, the outcome in [1] and in [2] was inactive. The EC50 – broadly, the concentration needed to bring the measured effect to its halfway point – on Kir3.1/Kir3.2 [3] was 460 nM; at Kir3.1/Kir3.4, 1300 nM. Moreover, the results for the Efficacy in test [4] and in test [5] were 103% and 96%, respectively.
`Cc1cc(NC(=O)Nc2ccccc2)n(-c2ccccc2)n1`: the result in test [2] was inactive. Besides, the results for the Efficacy in [6] and in [7] were 93% and 97%, respectively. Also, the concentration giving a half-maximal response (EC50) on Kir3.1/Kir3.4 amounted to 690 nM; on Kir3.1/Kir3.2 [8], 1400 nM.
On to `Cc1cc(NC(=O)Nc2ccc(F)c(F)c2)n(Cc2ccccc2)n1`, for which the result in test [1] and in test [2] was inactive. The EC50 at Kir3.1/Kir3.2 [3] was 70 nM; at Kir3.1/Kir3.4, 110 nM. The Efficacy in [4] was determined as 99%; in test [5] it was 87%.
For `O=C(Nc1ccc(F)cc1)Nc1cc(C2CC2)nn1Cc1ccccc1`, the results for the EC50 on Kir3.1/Kir3.2 [3] and at Kir3.1/Kir3.4 were 350 nM and 570 nM, respectively. In addition, the Efficacy in test [4] was found to be 90%; in test [5], 57%.
Turning to `O=C(Nc1cccc(Cl)c1)Nc1cc(C2CC2)nn1-c1ccccc1`, the EC50 was determined as 1400 nM on Kir3.1/Kir3.2 [3] and 720 nM at Kir3.1/Kir3.4. Also, the Efficacy worked out at 39% in [4] and 37% in test [5].
In the case of `Cc1cc(NC(=O)Nc2ccc(F)c(F)c2)n(-c2ccc(F)cc2)n1`, the outcome in test [1] and in test [2] was inactive. Further, the results for the EC50 on Kir3.1/Kir3.2 [3] and on Kir3.1/Kir3.4 were 190 nM and 540 nM, respectively. The Efficacy in test [4] was found to be 57%; in test [5], 78%.
For `Cc1cc(NC(=O)Nc2ccc(F)c(F)c2)n(-c2ccccc2)n1`, the result in test [2] was inactive. The Efficacy was 93% in test [6] and 194% in test [7]. In addition, the 50% effective concentration (EC50) on Kir3.1/Kir3.4 is 1800 nM; on Kir3.1/Kir3.2 [8] it was 160 nM.
As for `CN1CCc2cc(Cl)c(O)cc2[C@@H](c2ccccc2)C1` [SCH-23390], the IC50 (in general, the concentration at which inhibition is half-maximal) in [9] was 4 µM.
Consider `C[C@@H]1O[C@@H](O[C@H]2[C@H](Oc3cc(O)c4c(c3)O[C@H](c3ccc(O)cc3)CC4=O)O[C@H](CO)[C@@H](O)[C@@H]2O)[C@H](O)[C@H](O)[C@H]1O` [NARINGIN], for which, in test [10], the EC50 was > 100 µM.
